Earlier results in US20160361270A1, “UNIFORM, HIGH BASIS WEIGHT NANOFIBER FABRICS FOR MEDICAL APPLICATIONS” (University of Washington, priority 2015, published 2016).

Tests used:
[1] = not given; remark: listed apart in the source

## Cc1cc(C#N)cc(C)c1Oc1nc(Nc2ccc(C#N)cc2)nc(N)c1Br [etravirine]
other
  water solubility: < 100 µg/mL

## Cc1cc(C)c(Nc2ccnc(Nc3ccc(C#N)cc3)n2)c(C)c1 [dapivirine]
other
  water solubility: < 1 µg/mL

## Cc1nnc(C(=O)NC(C)(C)c2nc(C(=O)NCc3ccc(F)cc3)c(O)c(=O)n2C)o1 [raltegravir]
[1]
  pKa: 7

## C[C@H](Cn1cnc2c(N)ncnc21)OCP(=O)(O)O [tenofovir]
other
  water solubility: > 1000 µg/mL
